Data on 32 compounds can be found in patent US9920010B2, “CXCR7 receptor modulators” (IDORSIA PHARMACEUTICALS LTD, priority 2013, dated 2018).

In the test the target is T1, CXCR7 (Homo sapiens, UniProt P25106).
T1 construct: host or cells: CHO-K1 (PathHunter CHO-K1 CXCR7 b-arrestin cell line, stably transfected)
Description: PathHunter CHO-K1 CXCR7 b-arrestin recruitment assay (CXCR7 agonistic activity). Type of test: cell-based. The settings on record: PathHunter CHO-K1 CXCR7 b-arrestin cell line. A digest of the protocol: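 Stable CHO-K1 line with C-terminally ProLink-tagged CXCR7 and β-arrestin 2–EA fusion; β-arrestin recruitment restores β-gal activity, read by chemiluminescence after 1 h RT detection. Cells seeded 24 h, starved in OPTIMEM 3–4 h, exposed to compounds 90 min at 37 °C in HBSS/HEPES/BSA. Geometric-mean EC50 from repeated measurements.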
(Activated receptors often draw arrestin, which recruitment assays turn into a signal.)

T1 sequence (P25106 whole entry): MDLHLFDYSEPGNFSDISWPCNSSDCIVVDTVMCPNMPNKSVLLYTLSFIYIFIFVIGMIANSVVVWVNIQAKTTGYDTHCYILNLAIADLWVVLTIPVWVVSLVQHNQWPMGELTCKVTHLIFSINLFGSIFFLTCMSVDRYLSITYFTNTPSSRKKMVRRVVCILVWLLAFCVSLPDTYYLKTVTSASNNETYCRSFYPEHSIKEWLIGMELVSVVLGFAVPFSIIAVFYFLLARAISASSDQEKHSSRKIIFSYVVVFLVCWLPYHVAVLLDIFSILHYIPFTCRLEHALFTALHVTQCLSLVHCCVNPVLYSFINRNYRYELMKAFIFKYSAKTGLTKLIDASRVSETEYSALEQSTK
T1 sequence (P32121 whole entry partner): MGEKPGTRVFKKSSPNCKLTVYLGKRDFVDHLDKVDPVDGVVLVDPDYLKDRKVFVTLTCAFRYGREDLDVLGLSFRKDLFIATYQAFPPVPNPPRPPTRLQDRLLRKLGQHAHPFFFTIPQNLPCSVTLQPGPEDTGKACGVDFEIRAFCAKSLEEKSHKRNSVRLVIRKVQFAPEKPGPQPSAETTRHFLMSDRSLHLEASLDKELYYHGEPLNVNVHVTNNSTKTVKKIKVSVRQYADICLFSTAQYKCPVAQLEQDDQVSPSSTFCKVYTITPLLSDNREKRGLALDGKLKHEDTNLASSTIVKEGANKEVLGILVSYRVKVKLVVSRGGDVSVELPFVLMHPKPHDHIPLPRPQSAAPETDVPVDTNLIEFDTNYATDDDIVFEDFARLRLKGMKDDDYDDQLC

In general, EC50 refers to the concentration giving half of the maximal effect. A high value points to a less potent agent. For the compound `O=C(CNc1cccc2c1CCN(CC1CC1)C2)N(Cc1ccccc1C(F)(F)F)CC(O)C(F)(F)F` (racemic) [Example 242, rac-2-(2-Cyclopropylmethyl-1,2,3,4-tetrahydro-isoquinolin-5-ylamino)-N-(3,3,3-trifluoro-2-hydroxy-propyl)-N-(2-trifluoromethyl-benzyl)-acetamide], the EC50 turned out to be 24 nM.
The value for `CN(C)CCN(Cc1ccccc1Cl)C(=O)CNc1cccc2c1C(C)(C)CN(CC1CC1)C2` [Example 577, N-(2-Chloro-benzyl)-2-(2-cyclopropylmethyl-4,4-dimethyl-1,2,3,4-tetrahydro-isoquinolin-5-ylamino)-N-(2-dimethylamino-ethyl)-acetamide] was 0.9 nM; that for `COCCN1CCc2c(/C=C/C(=O)N(CCN(C)C)Cc3ncccc3C(F)(F)F)cccc2C1` [Example 318, (E)-N-(2-Dimethylamino-ethyl)-3-[2-(2-methoxy-ethyl)-1,2,3,4-tetrahydro-isoquinolin-5-yl]-N-(3-trifluoromethyl-pyridin-2-ylmethyl)-acrylamide] was 7 nM; that for `O=C(CNc1cccc2c1CCN(CC1CC1)C2)N(CCN1CCCC1)Cc1ccc(F)cc1Cl` [Example 50, N-(2-Chloro-4-fluoro-benzyl)-2-(2-cyclopropylmethyl-1,2,3,4-tetrahydro-isoquinolin-5-ylamino)-N-(2-pyrrolidin-1-yl-ethyl)-acetamide] was 6 nM.
The value for `NCCN(Cc1ccccc1C(F)(F)F)C(=O)CNc1cccc2c1CCN(CC1CC1)C2` [compound 442, N-(2-Amino-ethyl)-2-(2-cyclopropylmethyl-1,2,3,4-tetrahydro-isoquinolin-5-ylamino)-N-(2-trifluoromethyl-benzyl)-acetamide] was 10 nM.
The value for `COCC(O)CN(Cc1ccccc1C(F)(F)F)C(=O)CNc1cccc2c1CCN(CC1CC1)C2` (centres unmarked) [Example 223, 2-(2-Cyclopropylmethyl-1,2,3,4-tetrahydro-isoquinolin-5-ylamino)-N-(2-hydroxy-3-methoxy-propyl)-N-(2-trifluoromethyl-benzyl)-acetamide] was 10 nM; that for `CN(C)CCN(Cc1ncccc1Cl)C(=O)CNc1cccc2c1CCN(CC1CC1)C2` [Example 39, N-(3-Chloro-pyridin-2-ylmethyl)-2-(2-cyclopropylmethyl-1,2,3,4-tetrahydro-isoquinolin-5-ylamino)-N-(2-dimethylamino-ethyl)-acetamide] was 4 nM; that for `CN(C)CCN(Cc1cccc(Br)c1)C(=O)CNc1cccc2c1CCN(CC1CC1)C2` [Example 237, N-(3-Bromo-benzyl)-2-(2-cyclopropylmethyl-1,2,3,4-tetrahydro-isoquinolin-5-ylamino)-N-(2-dimethylamino-ethyl)-acetamide] was 5 nM.
Compound `CCCC(=O)N1CCc2c(cccc2NCC(=O)N(CCNC)Cc2ccccc2C(F)(F)F)C1` [compound 386, 2-(2-Butyryl-1,2,3,4-tetrahydro-isoquinolin-5-ylamino)-N-(2-methylamino-ethyl)-N-(2-trifluoromethyl-benzyl)-acetamide] showed an EC50 of 12 nM.
The value for `CN(C)CCN(Cc1ccccc1C(F)(F)F)C(=O)CNc1cccc2c1CCN(C1CCCC1)C2` [Example 210, 2-((2-Cyclopentyl-1,2,3,4-tetrahydroisoquinolin-5-yl)amino)-N-(2-(dimethylamino)ethyl)-N-(2-(trifluoromethyl)benzyl)acetamide] was 5 nM.
The value for `N#CCCN(Cc1ccccc1C(F)(F)F)C(=O)CNc1cccc2c1CCN(CC1CC1)C2` [Example 72, N-(2-Cyano-ethyl)-2-(2-cyclopropylmethyl-1,2,3,4-tetrahydro-isoquinolin-5-ylamino)-N-(2-trifluoromethyl-benzyl)-acetamide] was 28 nM.
The value for `O=C(CNc1cccc2c1CCN(CC1CC1)C2)N(CCN1CCC(F)(F)CC1)Cc1ccccc1C(F)(F)F` [Example 277, 2-(2-Cyclopropylmethyl-1,2,3,4-tetrahydro-isoquinolin-5-ylamino)-N-[2-(4,4-difluoro-piperidin-1-yl)-ethyl]-N-(2-trifluoromethyl-benzyl)-acetamide] was 28 nM; that for `CN(C)CCN(Cc1ccccc1C(F)(F)F)C(=O)CNc1cccc2c1CCN(c1ncccn1)C2` [Example 375, N-(2-Dimethylamino-ethyl)-2-(2-pyrimidin-2-yl-1,2,3,4-tetrahydro-isoquinolin-5-ylamino)-N-(2-trifluoromethyl-benzyl)-acetamide] was 6 nM; that for `CNCCN(Cc1ccccc1C(F)(F)F)C(=O)CNc1cccc2c1CCN(C(=O)NC(C)C)C2` [compound 404] was 60 nM.
`CNCCN(Cc1ncccc1C(F)(F)F)C(=O)CNc1cccc2c1CCN(C(=O)C1CCOC1)C2` (racemic) [compound 417] displayed an EC50 of 15 nM. This EC50 lies about 4-fold lower than the previous one.
`CC(C)(O)CN(Cc1ncccc1Cl)C(=O)/C=C/c1cccc2c1CCN(CC1CC1)C2` [Example 329, (E)-N-(3-Chloro-pyridin-2-ylmethyl)-3-(2-cyclopropylmethyl-1,2,3,4-tetrahydro-isoquinolin-5-yl)-N-(2-hydroxy-2-methyl-propyl)-acrylamide] returned an EC50 of 23 nM. Compared with the last compound, the EC50 is about 1.5-fold higher.
The value for `CC(C)(O)CN(Cc1ncccc1Br)C(=O)CNc1cccc2c1CN(CC1CC1)CC2` [compound 488] was 91 nM.
In turn, `CN(CCF)CCN(Cc1ccccc1C(F)(F)F)C(=O)CNc1cccc2c1CCN(CC1CC1)C2` [Example 244, 2-(2-Cyclopropylmethyl-1,2,3,4-tetrahydro-isoquinolin-5-ylamino)-N-{2-[(2-fluoro-ethyl)-methyl-amino]-ethyl}-N-(2-trifluoromethyl-benzyl)-acetamide] had an EC50 of 3 nM.
The value for `C[C@H](Nc1cccc2c1CCN(CC1CC1)C2)C(=O)N(CCN(C)C)Cc1ccccc1C(F)(F)F` [Example 291, (S)-2-(2-Cyclopropylmethyl-1,2,3,4-tetrahydro-isoquinolin-5-ylamino)-N-(2-dimethylamino-ethyl)-N-(2-trifluoromethyl-benzyl)-propionamide] was 92 nM; that for `CCN1CCc2cccc(NCC(=O)N(CCN3CCCC3)Cc3ccccc3)c2C1` [compound 509, N-Benzyl-2-(2-ethyl-1,2,3,4-tetrahydro-isoquinolin-8-ylamino)-N-(2-pyrrolidin-1-yl-ethyl)-acetamide] was 36 nM; that for `CCC(=O)N1CCc2c(cccc2NCC(=O)N(CCC2CCCN2C)Cc2ccccc2)C1` (racemic) [Example 32, rac-N-Benzyl-N-[2-(1-methyl-pyrrolidin-2-yl)-ethyl]-2-(2-propionyl-1,2,3,4-tetrahydro-isoquinolin-5-ylamino)-acetamide] was 28 nM.
The value for `CN(C)CCN(Cc1ccccc1)C(=O)CNc1cccc2c1CCN(C(=O)c1ccccc1)C2` [compound 125] was 240 nM; that for `CCN1Cc2cccc(NCC(=O)N(CCN(C)C)Cc3ncccc3C(F)(F)F)c2CC1=O` [Example 310, N-(2-Dimethylamino-ethyl)-2-(2-ethyl-3-oxo-1,2,3,4-tetrahydro-isoquinolin-5-ylamino)-N-(3-trifluoromethyl-pyridin-2-ylmethyl)-acetamide] was 78 nM; that for `O=C(CNc1cccc2c1CCN(C(=O)[C@@H]1C[C@@H]1F)C2)N(Cc1ccccc1C(F)(F)F)CC1(O)CCCC1` (racemic) [Example 372, rac-2-[2-((1S*,2S*)-2-Fluoro-cyclopropanecarbonyl)-1,2,3,4-tetrahydro-isoquinolin-5-ylamino]-N-(1-hydroxy-cyclopentylmethyl)-N-(2-trifluoromethyl-benzyl)-acetamide] was 271 nM.
The value for `C=CCOC(=O)N1CCc2c(cccc2NCC(=O)N(CCNC)Cc2ncccc2C(F)(F)F)C1` [compound 422, 5-({[(2-Methylamino-ethyl)-(3-trifluoromethyl-pyridin-2-ylmethyl)-carbamoyl]-methyl}-amino)-3,4-dihydro-1H-isoquinoline-2-carboxylic acid allyl ester] was 33 nM; that for `CNCCN(Cc1ccccc1C(F)(F)F)C(=O)CNc1cccc2c1CCN(C(=O)CC(C)(C)C)C2` [compound 393] was 110 nM.
`COC(=O)N1CCc2c(cccc2NCC(=O)N(CCN(C)C)Cc2ccccc2)C1` [Example 113, 5-({[Benzyl-(2-dimethylamino-ethyl)-carbamoyl]-methyl}-amino)-3,4-dihydro-1H-isoquinoline-2-carboxylic acid methyl ester] registered an EC50 of 26 nM.
As for `CN(C)CCN(Cc1ccncc1)C(=O)CNc1cccc2c1CCN(CC1CC1)C2` [Example 268, 2-(2-Cyclopropylmethyl-1,2,3,4-tetrahydro-isoquinolin-5-ylamino)-N-(2-dimethylamino-ethyl)-N-pyridin-4-ylmethyl-acetamide], a half-maximal response (EC50) required 350 nM.
Consider `CCC(=O)N1CCc2c(cccc2NCC(=O)N(CCN(C)C)Cc2ccc(F)cc2)C1` [Example 22, N-(2-Dimethylamino-ethyl)-N-(4-fluoro-benzyl)-2-(2-propionyl-1,2,3,4-tetrahydro-isoquinolin-5-ylamino)-acetamide], for which a half-maximal effect (EC50) was put at 80 nM.
The value for `CCC(=O)N1CCc2c(cccc2NCC(=O)N(CCN(C)C)Cc2cccc(F)c2)C1` [Example 21, N-(2-Dimethylamino-ethyl)-N-(3-fluoro-benzyl)-2-(2-propionyl-1,2,3,4-tetrahydro-isoquinolin-5-ylamino)-acetamide] was 39 nM; that for `CN(CCN(Cc1ccccc1C(F)(F)F)C(=O)CNc1cccc2c1CCN(CC1CC1)C2)C1CCOC1` (racemic) [compound 448] was 2 nM; that for `Cc1ccc(CN(CCN(C)C)C(=O)CNc2cccc3c2CCN(CC2CC2)C3)nc1` [Example 258, 2-(2-Cyclopropylmethyl-1,2,3,4-tetrahydro-isoquinolin-5-ylamino)-N-(2-dimethylamino-ethyl)-N-(5-methyl-pyridin-2-ylmethyl)-acetamide] was 27 nM.
